Measured values reported in US20100298141A1, “SUBSTITUTED PYRIDINE N-OXIDE HERBICIDES” (E. I. DU PONT DE NEMOURS AND COMPANY, priority 2007, published 2010).

Tests used:
Assay in all cases: Test F preemergence test
guineagrass = assay type: in vivo, Panicum maximum; details: scale 0 to 100; for Plant response rating, Guineagrass: 31 g ai/ha
In short: (§1)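 Test chemicals in a non-phytotoxic solvent mixture containing a surfactant were applied preemergence to sown seeds or postemergence to sugarcane plants. Treated plants and controls were held in a greenhouse for 14 to 21 days, then visually evaluated against controls.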

southern sandbur = assay type: in vivo, Cenchrus echinatus; details: scale 0 to 100; for Sandbur plant response rating: preemergence; for Plant response rating, Sandbur: Preemergence
In short: as §1

Surinam grass = assay type: in vivo, Brachiaria decumbens; details: scale 0 to 100; for Surinam Grass plant response rating: preemergence; for Plant response rating, Surinam Grass: Preemergence
In short: as §1

purple nutsedge = assay type: in vivo, Cyperus rotundus; details: scale 0 to 100; for Plant response rating, Purple Nutsedge: 31 g ai/ha
In short: as §1

johnsongrass = assay type: in vivo, Sorghum halepense; details: scale 0 to 100; for Plant response rating, Johnsongrass: 31 g ai/ha
In short: as §1

itchgrass = assay type: in vivo, Rottboellia cochinchinensis; details: scale 0 to 100; for Plant response rating, Itchgrass: 31 g ai/ha
In short: as §1

common purslane = assay type: in vivo, Portulaca oleracea; details: scale 0 to 100; for Plant response rating, Purslane: 31 g ai/ha
In short: as §1

common ragweed = assay type: in vivo, Ambrosia elation; details: scale 0 to 100; for Ragweed plant response rating: preemergence; for Plant response rating, Ragweed: Preemergence
In short: as §1

broadleaf signalgrass = assay type: in vivo, Brachiaria platyphylla; details: scale 0 to 100; for Signalgrass plant response rating: preemergence; for Plant response rating, Signalgrass: Preemergence
In short: as §1

field bindweed = assay type: in vivo, Convolvulus arvensis; details: scale 0 to 100; for Plant response rating, Field Bindweed: 31 g ai/ha
In short: as §1

Italian ryegrass = assay type: in vivo, Lolium multiflorum; details: scale 0 to 100; for Ryegrass, Italian plant response rating: preemergence; for Plant response rating, Ryegrass, Italian: Preemergence
In short: as §1

goosegrass = assay type: in vivo, Eleusine indica; details: scale 0 to 100; for Plant response rating, Goosegrass: 31 g ai/ha
In short: as §1

prickly sida = assay type: in vivo, Sida spinosa; details: scale 0 to 100; for Plant response rating, Prickly Sida: 31 g ai/ha
In short: as §1

bermudagrass = assay type: in vivo, Cynodon dactylon; details: scale 0 to 100; for Plant response rating, Bermudagrass: 31 g ai/ha
In short: as §1

pitted morningglory = assay type: in vivo, Ipomoea lacunosa; details: scale 0 to 100; for Plant response rating, Morningglory: 31 g ai/ha
In short: as §1

naked crabgrass = assay type: in vivo, Digitaria nuda; details: scale 0 to 100; for Plant response rating, Crabgrass, Naked: 31 g ai/ha
In short: as §1

## Cn1nc(C(F)(F)F)c(C[S+]([O-])c2ccc(F)c[n+]2[O-])c1OC(F)F (centres unmarked) [Compound 58]
guineagrass; 62 g ai/ha, Preemergence
  Guineagrass plant response rating: 100
guineagrass; 125 g ai/ha, preemergence
  Guineagrass plant response rating: 100
guineagrass; 250 g ai/ha, preemergence
  Guineagrass plant response rating: 100
guineagrass; Preemergence
  Plant response rating, Guineagrass: 90
Southern sandbur; 125 g ai/ha
  Sandbur plant response rating: 100
Southern sandbur; 250 g ai/ha
  Sandbur plant response rating: 100
Southern sandbur; 62 g ai/ha
  Plant response rating, Sandbur: 100
Southern sandbur; 31 g ai/ha
  Plant response rating, Sandbur: 80
Surinam grass; 125 g ai/ha
  Surinam Grass plant response rating: 100
Surinam grass; 250 g ai/ha
  Surinam Grass plant response rating: 100
Surinam grass; 62 g ai/ha
  Plant response rating, Surinam Grass: 98
Surinam grass; 31 g ai/ha
  Plant response rating, Surinam Grass: 80
Purple nutsedge; 62 g ai/ha, Preemergence
  Purple Nutsedge plant response rating: 80
Purple nutsedge; 125 g ai/ha, preemergence
  Purple Nutsedge plant response rating: 95
Purple nutsedge; 250 g ai/ha, preemergence
  Purple Nutsedge plant response rating: 95
Purple nutsedge; Preemergence
  Plant response rating, Purple Nutsedge: 0
johnsongrass; 62 g ai/ha, Preemergence
  Johnsongrass plant response rating: 90
johnsongrass; 125 g ai/ha, preemergence
  Johnsongrass plant response rating: 100
johnsongrass; 250 g ai/ha, preemergence
  Johnsongrass plant response rating: 100
johnsongrass; Preemergence
  Plant response rating, Johnsongrass: 80
itchgrass; 62 g ai/ha, Preemergence
  Itchgrass plant response rating: 75
itchgrass; 125 g ai/ha, preemergence
  Itchgrass plant response rating: 90
itchgrass; 250 g ai/ha, preemergence
  Itchgrass plant response rating: 100
itchgrass; Preemergence
  Plant response rating, Itchgrass: 35
Common purslane; 62 g ai/ha, Preemergence
  Purslane plant response rating: 25
Common purslane; 125 g ai/ha, preemergence
  Purslane plant response rating: 80
Common purslane; 250 g ai/ha, preemergence
  Purslane plant response rating: 100
Common purslane; Preemergence
  Plant response rating, Purslane: 0
Common ragweed; 125 g ai/ha
  Ragweed plant response rating: 60
Common ragweed; 250 g ai/ha
  Ragweed plant response rating: 80
Common ragweed; 62 g ai/ha
  Plant response rating, Ragweed: 60
Common ragweed; 31 g ai/ha
  Plant response rating, Ragweed: 50
Broadleaf signalgrass; 125 g ai/ha
  Signalgrass plant response rating: 90
Broadleaf signalgrass; 250 g ai/ha
  Signalgrass plant response rating: 98
Broadleaf signalgrass; 62 g ai/ha
  Plant response rating, Signalgrass: 80
Broadleaf signalgrass; 31 g ai/ha
  Plant response rating, Signalgrass: 30
Field bindweed; 62 g ai/ha, Preemergence
  Field Bindweed plant response rating: 0
Field bindweed; 125 g ai/ha, preemergence
  Field Bindweed plant response rating: 20
Field bindweed; 250 g ai/ha, preemergence
  Field Bindweed plant response rating: 65
Field bindweed; Preemergence
  Plant response rating, Field Bindweed: 0
Italian ryegrass; 125 g ai/ha
  Ryegrass, Italian plant response rating: 100
Italian ryegrass; 250 g ai/ha
  Ryegrass, Italian plant response rating: 100
Italian ryegrass; 62 g ai/ha
  Plant response rating, Ryegrass, Italian: 98
Italian ryegrass; 31 g ai/ha
  Plant response rating, Ryegrass, Italian: 50
goosegrass; 62 g ai/ha, Preemergence
  Goosegrass plant response rating: 98
goosegrass; 125 g ai/ha, preemergence
  Goosegrass plant response rating: 98
goosegrass; 250 g ai/ha, preemergence
  Goosegrass plant response rating: 100
goosegrass; Preemergence
  Plant response rating, Goosegrass: 70
Prickly sida; 62 g ai/ha, Preemergence
  Prickly Sida plant response rating: 65
Prickly sida; 125 g ai/ha, preemergence
  Prickly Sida plant response rating: 95
Prickly sida; 250 g ai/ha, preemergence
  Prickly Sida plant response rating: 98
Prickly sida; Preemergence
  Plant response rating, Prickly Sida: 0
bermudagrass; 62 g ai/ha, Preemergence
  Bermudagrass plant response rating: 90
bermudagrass; 125 g ai/ha, preemergence
  Bermudagrass plant response rating: 100
bermudagrass; 250 g ai/ha, preemergence
  Bermudagrass plant response rating: 100
bermudagrass; Preemergence
  Plant response rating, Bermudagrass: 70
Pitted morningglory; 62 g ai/ha, Preemergence
  Morningglory plant response rating: 70
Pitted morningglory; 125 g ai/ha, preemergence
  Morningglory plant response rating: 100
Pitted morningglory; 250 g ai/ha, preemergence
  Morningglory plant response rating: 100
Pitted morningglory; Preemergence
  Plant response rating, Morningglory: 50
Naked crabgrass; 62 g ai/ha, Preemergence
  Crabgrass, Naked plant response rating: 100
Naked crabgrass; 125 g ai/ha, preemergence
  Crabgrass, Naked plant response rating: 100
Naked crabgrass; 250 g ai/ha, preemergence
  Crabgrass, Naked plant response rating: 100
Naked crabgrass; Preemergence
  Plant response rating, Crabgrass, Naked: 75

## CCc1cc[n+]([O-])c(S(=O)(=O)Cc2c(C(F)(F)F)nn(C)c2OCC(F)(F)F)c1 [Compound 60]
guineagrass; 62 g ai/ha, Preemergence
  Guineagrass plant response rating: 100
guineagrass; 125 g ai/ha, preemergence
  Guineagrass plant response rating: 100
guineagrass; 250 g ai/ha, preemergence
  Guineagrass plant response rating: 100
guineagrass; Preemergence
  Plant response rating, Guineagrass: 35
Southern sandbur; 125 g ai/ha
  Sandbur plant response rating: 100
Southern sandbur; 250 g ai/ha
  Sandbur plant response rating: 100
Southern sandbur; 62 g ai/ha
  Plant response rating, Sandbur: 65
Southern sandbur; 31 g ai/ha
  Plant response rating, Sandbur: 20
Surinam grass; 125 g ai/ha
  Surinam Grass plant response rating: 100
Surinam grass; 250 g ai/ha
  Surinam Grass plant response rating: 100
Surinam grass; 62 g ai/ha
  Plant response rating, Surinam Grass: 90
Surinam grass; 31 g ai/ha
  Plant response rating, Surinam Grass: 80
Purple nutsedge; 62 g ai/ha, Preemergence
  Purple Nutsedge plant response rating: 50
Purple nutsedge; 125 g ai/ha, preemergence
  Purple Nutsedge plant response rating: 80
Purple nutsedge; 250 g ai/ha, preemergence
  Purple Nutsedge plant response rating: 90
Purple nutsedge; Preemergence
  Plant response rating, Purple Nutsedge: 0
johnsongrass; 62 g ai/ha, Preemergence
  Johnsongrass plant response rating: 50
johnsongrass; 125 g ai/ha, preemergence
  Johnsongrass plant response rating: 95
johnsongrass; 250 g ai/ha, preemergence
  Johnsongrass plant response rating: 100
johnsongrass; Preemergence
  Plant response rating, Johnsongrass: 0
itchgrass; 62 g ai/ha, Preemergence
  Itchgrass plant response rating: 15
itchgrass; 125 g ai/ha, preemergence
  Itchgrass plant response rating: 25
itchgrass; 250 g ai/ha, preemergence
  Itchgrass plant response rating: 70
itchgrass; Preemergence
  Plant response rating, Itchgrass: 0
Common purslane; 62 g ai/ha, Preemergence
  Purslane plant response rating: 0
Common purslane; 125 g ai/ha, preemergence
  Purslane plant response rating: 25
Common purslane; 250 g ai/ha, preemergence
  Purslane plant response rating: 60
Common purslane; Preemergence
  Plant response rating, Purslane: 0
Common ragweed; 125 g ai/ha
  Ragweed plant response rating: 75
Common ragweed; 250 g ai/ha
  Ragweed plant response rating: 100
Common ragweed; 62 g ai/ha
  Plant response rating, Ragweed: 65
Common ragweed; 31 g ai/ha
  Plant response rating, Ragweed: 0
Broadleaf signalgrass; 125 g ai/ha
  Signalgrass plant response rating: 75
Broadleaf signalgrass; 250 g ai/ha
  Signalgrass plant response rating: 100
Broadleaf signalgrass; 62 g ai/ha
  Plant response rating, Signalgrass: 75
Broadleaf signalgrass; 31 g ai/ha
  Plant response rating, Signalgrass: 30
Field bindweed; 62 g ai/ha, Preemergence
  Field Bindweed plant response rating: 30
Field bindweed; 125 g ai/ha, preemergence
  Field Bindweed plant response rating: 50
Field bindweed; 250 g ai/ha, preemergence
  Field Bindweed plant response rating: 70
Field bindweed; Preemergence
  Plant response rating, Field Bindweed: 0
Italian ryegrass; 125 g ai/ha
  Ryegrass, Italian plant response rating: 90
Italian ryegrass; 250 g ai/ha
  Ryegrass, Italian plant response rating: 100
Italian ryegrass; 62 g ai/ha
  Plant response rating, Ryegrass, Italian: 75
Italian ryegrass; 31 g ai/ha
  Plant response rating, Ryegrass, Italian: 75
goosegrass; 62 g ai/ha, Preemergence
  Goosegrass plant response rating: 80
goosegrass; 125 g ai/ha, preemergence
  Goosegrass plant response rating: 100
goosegrass; 250 g ai/ha, preemergence
  Goosegrass plant response rating: 100
goosegrass; Preemergence
  Plant response rating, Goosegrass: 80
Prickly sida; 62 g ai/ha, Preemergence
  Prickly Sida plant response rating: 40
Prickly sida; 125 g ai/ha, preemergence
  Prickly Sida plant response rating: 75
Prickly sida; 250 g ai/ha, preemergence
  Prickly Sida plant response rating: 75
Prickly sida; Preemergence
  Plant response rating, Prickly Sida: 0
bermudagrass; 62 g ai/ha, Preemergence
  Bermudagrass plant response rating: 80
bermudagrass; 125 g ai/ha, preemergence
  Bermudagrass plant response rating: 100
bermudagrass; 250 g ai/ha, preemergence
  Bermudagrass plant response rating: 100
bermudagrass; Preemergence
  Plant response rating, Bermudagrass: 20
Pitted morningglory; 62 g ai/ha, Preemergence
  Morningglory plant response rating: 0
Pitted morningglory; 125 g ai/ha, preemergence
  Morningglory plant response rating: 70
Pitted morningglory; 250 g ai/ha, preemergence
  Morningglory plant response rating: 100
Pitted morningglory; Preemergence
  Plant response rating, Morningglory: 0
Naked crabgrass; 62 g ai/ha, Preemergence
  Crabgrass, Naked plant response rating: 100
Naked crabgrass; 125 g ai/ha, preemergence
  Crabgrass, Naked plant response rating: 100
Naked crabgrass; 250 g ai/ha, preemergence
  Crabgrass, Naked plant response rating: 100
Naked crabgrass; Preemergence
  Plant response rating, Crabgrass, Naked: 20
